Type in all cases: cell-based
The target in assay [1] is T1, PBRM1 PB5 (Homo sapiens, UniProt Q86U86). Put plainly: PBRM1 PB5 GFP/RFP degradation assay (flow cytometry reporter assay). The settings on record: 5 hours, FIG. 3A-3F. On the procedure: (§1) PBRM1 PB5 was subcloned into mammalian pcDNA5/FRT Vector (Ampicillin and Hygromycin B resistant) modified to contain MCS-eGFP-P2A-mCherry. Stable cell lines expressing eGFP-protein fusion and mCherry reporter were generated using the Flip-In™ 293 system. Plasmid (0.3 g) and pOG44 (4.7 g) DNA were preincubated in 100 of Opti-MEM I (Gibco™, Life Technologies) media containing 0.05 mg/ml Lipofectamine 2000 (Invitrogen) for 20 minutes and added to Flip-In™ 293 cells containing 1.9 ml of DMEM media (Gibco™, Life Technologies) per well in a 6-well plate format (Falcon, 353046). Cells were propagated after 48 hours and transferred into a 10 cm^2 plate (Corning, 430165) in DMEM media containing 50 μg/ml of Hygromycin B (REF 10687010, Invitrogen) as a selection marker. Following a 2-3 passage cycle, FACS (FACSAria II, BD) was used to enrich for cells expressing eGFP and mCherry.
Cells were seeded at 30-50% confluency in either 24, 48 or 96 well plates (3524, 3548, 3596, respectively, Costar) a day before compound treatment. Titrated compounds were incubated with cells for 5 hours following trypsinization and resuspension in DMEM media, transferred into 96-well plates (353910, Falcon) and analyzed by flow cytometer (guava easyCyte HT, Millipore). Signal from minimal 3000 events per well was acquired and the eGFP and mCherry florescence were monitored. Data was analyzed using FlowJo® (FlowJo, LLC). Forward and side scatter outliers, frequently associated with cell debris, were removed leaving >90% of total cells, followed by removal of eGFP and mCherry signal outliers, leaving 88-90% of total cells creating the set used for quantification. The eGFP protein abundance relative to mCherry was then quantified as a ten-fold amplified ratio for each individual cell using the formula: 10×eGFP/mCherry. The median of the ratio was then calculated per set, normalized to the median of the DMSO ratio.
The assay described in Example 16 was repeated, using compounds 3-8 and the control (“negative compound” (G)).

For assay [2], the target named is T1, PBRM1 PB5. The experiment in a line: Imaging based PBRM1 PB5 GFP/RFP degradation assay. The following applies: after 3 h of incubation; for degradation of PBRM1 PB5: FIG. 3H-3J. On the procedure:
Cells stably expressing PBRM1 PB5 in Example 16, were seeded at 30-50% confluency in 384 well plates (3764, Corning) with 50 μL FluoroBrite DMEM media (Gibco, A18967) containing 10% FBS per well a day before compound treatment. […] The assay plate was imaged immediately using Acumen eX3/HCl (TTPLabtech) High Content Imager with 488 nm and 561 nm lasers in […] grid per well format. The resulting images were analyzed using CellProfiler (Carpenter et al., Genome Biol. 7R100 PIMD 17076895 (2006)). A series of image analysis steps (‘image analysis pipeline’) was constructed.
The CellProfiler pipeline steps were as follows. First, the red and green channels were aligned and cropped to target the middle of each well (to avoid analysis of heavily clumped cells at the edges), and a background illumination function was calculated for both red and green channels of each well individually and subtracted to correct for illumination variations across the 384-well plate from various sources of error. An additional step was then applied to the green channel to suppress the analysis of large auto fluorescent artifacts and enhance the analysis of cell specific fluorescence by way of selecting for objects under a given size, 30 A.U., and with a given shape, speckles. Cells that were mCherry-positive were then identified in the red channel filtering for objects between 8-60 pixels in diameter and using intensity to distinguish between clumped objects. The green channel was then segmented into GFP positive and negative areas and objects were labeled as GFP positive if at least 40% of it overlapped with a GFP positive area. The fraction of GFP-positive cells/mCherry-positive cells (GFP/mCherry ratio) in each well was then calculated, and the green and red images were rescaled for visualization. The GFP/mCherry ratio was normalized to DMSO visualized in GraphPad Prism 7.

The target in another assay is T2, CRBN (Homo sapiens, UniProt Q96SW2).
T2 construct: Cells stably expressing BRD4BD2-GFP with mCherry reporter were seeded; endogenous in cells; host or cells: Flip-In 293 cells stably expressing BRD4BD2-eGFP-P2A-mCherry
The experiment in a line: Cellular CRBN binding assay (BRD4BD2-GFP/mCherry reporter, competition with 100 nM dBET6). The settings on record: GFP/RFP ratio, Flip-In 293 cells expressing BRD4BD2-GFP, 5 hours. As to the method:
as §1, with “BRD4BD2 were” for “PBRM1 PB5 was”, “μg)” for “g)”, “Lipofectamine®” for “Lipofectamine”
Cells stably expressing BRD4BD2-GFP with mCherry reporter were seeded at 30-50% confluency in 384 well plates (3764, Corning) with 50 μl FluoroBrite DMEM media (Gibco™, A18967) containing 10% FBS per well a day before compound treatment. Compounds and 100 nM dBET6 were dispensed using D300e Digital Dispenser (HP) normalized to 0.5% DMSO and incubated with cells for 5 hours. The assay plate was imaged immediately using Acumen eX3/HCl (TTPLabtech) High Content Imager with 488 nm and 561 nm lasers in […] grid per well format. The resulting images were analyzed using CellProfiler (Carpenter, et al., Genome Biol. 7:R100 PIMD 17076895 (2006)).

The next assay has as its target T3, PBRM1 (Homo sapiens, UniProt Q86U86).
T3 construct: near complete degradation of endogenous PBRM1; endogenous in cells; host or cells: Kelly cells
The experiment in a line: Kelly cell PBRM1 Western blot for cellular degradation of proteins. The settings on record: Kelly cells; relative to GAPDH, compared to DMSO. On the procedure: Kelly cells were treated with compounds as indicated and incubated for 6 or 24 hours. Samples were run on 4-20% or Any kD™ SDS-PAGE Gels (Bio-Rad), and transferred to PVDF membranes using the iBlot 2.0 dry blotting system (Thermo-Fisher Scientific). Membranes were blocked with LI-COR blocking solution (LI-COR), and incubated with primary antibodies overnight, followed by three washes in LI-COR blocking solution and incubation with secondary antibodies for one hour in the dark. After three final washes, the membranes were imaged on a LI-COR fluorescent imaging station (LI-COR). Antibodies used: anti-PBRM1 at 1:500 dilution (Cell Signaling, clone D3F70), anti-GAPDH at 1:10,000 dilution (G8795, Sigma), IRDye 680 Donkey anti-mouse at 1:10,000 dilution (926-68072, LI-COR).

The text below walks through data of patent US11771697B2, “Small molecule degraders of polybromo-1 (PBRM1)” (DANA-FARBER CANCER INSTITUTE, INC., priority 2018, dated 2023).

Structures are written as SMILES.

What is called DC50 is the concentration giving 50% degradation. What is called IC50 is the concentration that inhibits the measured activity by half.

Take `Nc1nnc(-c2ccccc2O)cc1N1CCN(C(=O)CCCCCCCCCOc2cccc3c2C(=O)N(C2CCC(=O)NC2=O)C3=O)CC1` (centres unmarked) [Compound 8, 4-((10-(4-(3-amino-6-(2-hydroxyphenyl)pyridazin-4-yl)piperazin-1-yl)-10-oxodecyl)oxy)-2-(2,6-dioxopiperidin-3-yl)isoindoline-1,3-dione]: half-maximal degradation at PBRM1 PB5 [1] (DC50) was put at 3.9 nM.
As to `Nc1nnc(-c2ccccc2O)cc1N1CCN(CCCCCCNC(=O)COc2cccc3c2C(=O)N(C2CCC(=O)NC2=O)C3=O)CC1` (centres unmarked) [Compound 13, N-(6-(4-(3-amino-6-(2-hydroxyphenyl)pyridazin-4-yl)piperazin-1-yl)hexyl)-2-((2-(2,6-dioxopiperidin-3-yl)-1,3-dioxoisoindolin-4-yl)oxy)acetamide], on PBRM1 PB5 [2], the “degradation of PBRM1 PB5” value is listed as “potent degradation”. In addition, on PBRM1 PB5 [2] (high compound concentration), the hook effect result is “hook effect”.
The compound `Nc1nnc(-c2ccccc2O)cc1N1CCN(C(=O)CCCCCCCOc2cccc3c2C(=O)N(C2CCC(=O)NC2=O)C3=O)CC1` (centres unmarked) [Compound 6, 4-((8-(4-(3-amino-6-(2-hydroxyphenyl)pyridazin-4-yl)piperazin-1-yl)-8-oxooctyl)oxy)-2-(2,6-dioxopiperidin-3-yl)isoindoline-1,3-dione] came in with a DC50 at PBRM1 PB5 [1] of 6.42 nM.
For `Nc1nnc(-c2ccccc2O)cc1N1CCN(C(=O)CCCCCCCCCCOc2cccc3c2C(=O)N(C2CCC(=O)NC2=O)C3=O)CC1` (centres unmarked) [Compound 5, 4-((11-(4-(3-amino-6-(2-hydroxyphenyl)pyridazin-4-yl)piperazin-1-yl)-11-oxoundecyl)oxy)-2-(2,6-dioxopiperidin-3-yl)isoindoline-1,3-dione], at PBRM1 PB5 [1], half-maximal degradation (DC50) was put at 3.64 nM.
Regarding `Nc1nnc(-c2ccccc2O)cc1N1CCN(C(=O)CCOCCNc2cccc3c2CN(C2CCC(=O)NC2=O)C3=O)CC1` (centres unmarked) [Compound 1, 3-(4-((2-(3-(4-(3-amino-6-(2-hydroxyphenyl)pyridazin-4-yl)piperazin-1-yl)-3-oxopropoxy)ethyl)amino)-1-oxoisoindolin-2-yl)piperidine-2,6-dione], the IC50 at CRBN was determined as 30500 nM. Further, the “degradation of PBRM1 (Western blot, FIG. 4)” value at PBRM1 is on record as “degradation of PBRM1”.
For the compound `Nc1nnc(-c2ccccc2O)cc1N1CCN(C(=O)CCCCCCCCOc2cccc3c2C(=O)N(C2CCC(=O)NC2=O)C3=O)CC1` (centres unmarked) [Compound 3, 4-((9-(4-(3-amino-6-(2-hydroxyphenyl)pyridazin-4-yl)piperazin-1-yl)-9-oxononyl)oxy)-2-(2,6-dioxopiperidin-3-yl)isoindoline-1,3-dione], on CRBN, the IC50 was 162 nM. It took 2.86 nM to reach half-maximal degradation on PBRM1 PB5 [1] (DC50).
For `Nc1nnc(-c2ccccc2O)cc1N1CCN(C(=O)CCCCCCOc2cccc3c2C(=O)N(C2CCC(=O)NC2=O)C3=O)CC1` (centres unmarked) [Compound 7, 4-((7-(4-(3-amino-6-(2-hydroxyphenyl)pyridazin-4-yl)piperazin-1-yl)-7-oxoheptyl)oxy)-2-(2,6-dioxopiperidin-3-yl)isoindoline-1,3-dione], it took 6.35 nM to reach half-maximal degradation on PBRM1 PB5 [1] (DC50).
In turn, `Nc1nnc(-c2ccccc2O)cc1N1CCN(C(=O)COc2cccc3c2C(=O)N(C2CCC(=O)NC2=O)C3=O)CC1` (centres unmarked) [Compound 4, 4-(2-(4-(3-amino-6-(2-hydroxyphenyl)pyridazin-4-yl)piperazin-1-yl)-2-oxoethoxy)-2-(2,6-dioxopiperidin-3-yl)isoindoline-1,3-dione] returned a DC50 on PBRM1 PB5 [1] of 21.8 nM.
Regarding `Cc1ncsc1-c1ccc([C@H](C)NC(=O)[C@@H]2C[C@@H](O)CN2C(=O)[C@@H](NC(=O)CCCCCCCC(=O)N2CCN(c3cc(-c4ccccc4O)nnc3N)CC2)C(C)(C)C)cc1` [Compound 12, (2S,4R)-1-((S)-2-(9-(4-(3-Amino-6-(2-hydroxyphenyl)pyridazin-4-yl)piperazin-1-yl)-9-oxononanamido)-3,3-dimethylbutanoyl)-4-hydroxy-N—((S)-1-(4-(4-methylthiazol-5-yl)phenyl)ethyl)pyrrolidine-2-carboxamide], the “degradation of PBRM1 PB5” value at PBRM1 PB5 [2] was “potent degradation”.
The same measure, in the same setting: next, `Cc1ncsc1-c1ccc([C@H](C)NC(=O)[C@@H]2C[C@@H](O)CN2C(=O)[C@@H](NC(=O)CCCCCCCCN2CCN(c3cc(-c4ccccc4O)nnc3N)CC2)C(C)(C)C)cc1` [Compound 11, (2S,4R)-1-((S)-2-(9-(4-(3-amino-6-(2-hydroxyphenyl)pyridazin-4-yl)piperazin-1-yl)nonanamido)-3,3-dimethylbutanoyl)-4-hydroxy-N—((S)-1-(4-(4-methylthiazol-5-yl)phenyl)ethyl)pyrrolidine-2-carboxamide]: “less effective”.
Regarding `Nc1nnc(-c2ccccc2O)cc1N1CCN(C(=O)CCOCCOCCNc2cccc3c2CN(C2CCC(=O)NC2=O)C3=O)CC1` (centres unmarked) [Compound 2, 3-(4-((2-(2-(3-(4-(3-amino-6-(2-hydroxyphenyl)pyridazin-4-yl)piperazin-1-yl)-3-oxopropoxy)ethoxy)ethyl)amino)-1-oxoisoindolin-2-yl)piperidine-2,6-dione], the IC50 at CRBN amounted to 20900 nM.
